Source: patent US20140314857A1, “FORMULATIONS FOR ENHANCED BIOAVAILABILITY OF ZANAMIVIR” (priority 2012, published 2014)
Where “and” joins values, the source holds several entries; their conditions need not be identical. Equal entries are not always repeated.

What was measured:
[1] = Express IV formulation development: solubility screening in normal saline; assay type: physicochemical; conditions: saline or isotonic, thermodynamic from solid, NS, visual observation after vortexing
Method: The following procedure and potential dosing vehicles were evaluated, and the results are described. The target concentrations of 5 mg/mL were investigated. 1. Weigh 2-5 mg of the zanamivir into a 4 mL glass vial. 2. Add the appropriate volume of normal saline. 3. Vortex, record observations of the formulation. 4. Take an aliquot and dilute it 5-fold with NS. 5. Record observations of the formulation. 6. End of the procedure.

[2] = Intraduodenal bioavailability of zanamivir from glycerol and PBS formulations, enhancer pre-dose (Example 6); conditions: for half-life: t1/2, ID 1.5 mg/animal
Excerpt: Male Sprague-Dawley rats (Hilltop Labs), 3 animals per treatment group, 250-350 grams in weight, were fitted with a jugular vein cannula (JVC). Animals intended for intraduodenal dosing were also fitted with one or more intraduodenal cannula (IDC) and those intended for intravenous dosing were fitted with a second JVC. Food was withheld from the animals for a minimum of twelve hours prior to test article administration and was returned approximately four hours post-dose. Water was supplied ad libitum.
Intraduodenal doses composed of 1.5 mg of zanamivir and varying amounts of an enhancer (glycerol or Capmul MCM L8) were injected directly into the duodenum via the IDC. Intravenous dosing was conducted by the injection of 1.5 mg of zanamivir in 200 μL of PBS through a JVC. For some experiments, the absorption enhancer was administered intraduodenally 2 hr prior to administering 1.5 mg of zanamivir in PBS through a second IDC. Each intraduodenal dose was followed with the introduction of a small air bubble (˜10 μL) in the cannula followed by a flush of 125 μL of PBS to ensure the dose was given in full. The volume of PBS used for cannula flush was consistent across the treatment groups. The cannula was tied to prevent the PBS remaining in the cannula from entering the duodenum.
Blood samples collected via the JVC, approximately 400 μL each, were obtained at 2 min, 5 min, 15 min, 30 min, 60 min, 90 min, and 120 min, with sodium heparin used as an anti-coagulant. Each sample was placed into a chilled tube containing the anticoagulant and kept on ice until centrifugation at 4° C., 3,000×g, for 5 min. The plasma supernatants were stored at −70° C. until LC-MS analysis.
Dosing solution samples were assayed by LC-MS/MS using electrospray ionization. The chromatographic system consisted of Perkin Elmer series 200 micropumps and autosampler equipped with a Waters Atlantic® HILIC Silica 3 μM, 2.1×50 mm column. The mass spectrometer was a PE Sciex API 4000 with electrospray interface in multiple reaction monitoring mode. […] Stock solutions (1 mg/mL zanamivir) were prepared in water. Standards (eight concentrations) were prepared in the appropriate matched matrix (HBSSg or Sprague-Dawley rat plasma containing sodium heparin) and diluted 50-fold with methanol. Experimental samples were treated identically.
Standards and samples were prepared in Sprague Dawley rat plasma containing sodium heparin as an anticoagulant. An eight-point calibration curve was prepared at concentrations of 1000, 750, 500, 250, 100, 50, 25, and 10 ng/mL by serial dilution. Standard samples were treated identically to the study samples.
Plasma samples were extracted by protein precipitation in methanol.
In this example, the bioavailability of Zanamivir was evaluated after intraduodenal doses in male Sprague-Dawley rats. The test compound was dosed at 1.5 mg/animal through intraduodenal routes from glycerol and PBS formulations. Plasma levels were determined by LC-MS/MS analysis. Pharmacokinetic parameters were estimated by a non-compartmental model using WinNonlin v5.2.1 software.

SMILES: CC(=O)NC1C(NC(=N)N)C=C(C(=O)O)OC1C(O)C(O)CO (stereo not drawn) [Zanamivir, 5-acetamido-4-guanidino-6-(1,2,3-trihydroxypropyl)-5,6-dihydro-4H-pyran-2-carboxylic acid]
- solubility [1]: ≥ 5000 µg/mL
- Plasma concentration ([2]; ID 1.5 mg/animal, 50 µL PBS, 50 µL blank Capmul MCM L8 -2 hr, 0.25 hr, individual rats): 27.1 ng/mL and 28.1 ng/mL
- Plasma concentration ([2]; ID 1.5 mg/animal, 50 µL PBS, 50 µL blank Capmul MCM L8 -2 hr, 0.5 hr, individual rats): 34.5 ng/mL and 42.9 ng/mL
- Plasma concentration ([2]; ID 1.5 mg/animal, 50 µL PBS, 50 µL blank Capmul MCM L8 -2 hr, 0.83 hr, individual rats): 18.1 ng/mL and 8.00 ng/mL and 6.27 ng/mL
- Plasma concentration ([2]; ID 1.5 mg/animal, 50 µL PBS, 50 µL blank Capmul MCM L8 -2 hr, 1.0 hr, individual rats): 33.1 ng/mL and 32.1 ng/mL
- Plasma concentration ([2]; ID 1.5 mg/animal, 50 µL PBS, 50 µL blank Capmul MCM L8 -2 hr, 1.5 hr, individual rats): 61.5 ng/mL and 23.2 ng/mL and 31.4 ng/mL
- Plasma concentration ([2]; ID 1.5 mg/animal, 50 µL PBS, 50 µL blank Capmul MCM L8 -2 hr, 2.0 hr, individual rats): 68.3 ng/mL and 14.8 ng/mL and 18.2 ng/mL
- Tmax ([2]; ID 1.5 mg/animal, 50 µL PBS, 50 µL blank Capmul MCM L8 -2 hr, individual rats): 2.00 h
- Plasma concentration ([2]; ID 1.5 mg/animal, 50 µL PBS, 150 µL blank glycerol -2 hr, 0.25 hr, individual rats): 65.2 ng/mL and 28.9 ng/mL and 61.2 ng/mL
- Plasma concentration ([2]; ID 1.5 mg/animal, 50 µL PBS, 150 µL blank glycerol -2 hr, 0.5 hr, individual rats): 40.1 ng/mL and 72.3 ng/mL
- Plasma concentration ([2]; ID 1.5 mg/animal, 50 µL PBS, 150 µL blank glycerol -2 hr, 0.83 hr, individual rats): 22.7 ng/mL and 1.47 ng/mL and 48.9 ng/mL
- Plasma concentration ([2]; ID 1.5 mg/animal, 50 µL PBS, 150 µL blank glycerol -2 hr, 1.0 hr, individual rats): 39.8 ng/mL and 38.4 ng/mL
- Plasma concentration ([2]; ID 1.5 mg/animal, 50 µL PBS, 150 µL blank glycerol -2 hr, 1.5 hr, individual rats): 45.8 ng/mL and 34.5 ng/mL
- Plasma concentration ([2]; ID 1.5 mg/animal, 50 µL PBS, 150 µL blank glycerol -2 hr, 2.0 hr, individual rats, BLOQ = below 10 ng/mL): 54.8 ng/mL
- Tmax ([2]; ID 1.5 mg/animal, 50 µL PBS, 150 µL blank glycerol -2 hr, individual rats): 1.50 h
- Plasma concentration ([2]; ID 1.5 mg/animal, 100 µL Glycerol, 0.25 hr, individual rats): 76.4 ng/mL and 40.7 ng/mL
- Plasma concentration ([2]; ID 1.5 mg/animal, 100 µL Glycerol, 0.5 hr, individual rats): 59.2 ng/mL and 35.6 ng/mL
- Plasma concentration ([2]; ID 1.5 mg/animal, 100 µL Glycerol, 0.83 hr, individual rats): 55.4 ng/mL and 78.4 ng/mL and 37.5 ng/mL
- Plasma concentration ([2]; ID 1.5 mg/animal, 100 µL Glycerol, 1.0 hr, individual rats): 55.3 ng/mL and 39.4 ng/mL
- Plasma concentration ([2]; ID 1.5 mg/animal, 100 µL Glycerol, 1.5 hr, individual rats): 29.6 ng/mL and 47.6 ng/mL and 63.5 ng/mL
- Plasma concentration ([2]; ID 1.5 mg/animal, 100 µL Glycerol, 2.0 hr, individual rats): 30.8 ng/mL and 37.4 ng/mL and 94.5 ng/mL
- Tmax ([2]; ID 1.5 mg/animal, 100 µL Glycerol, individual rats): 2.00 h
- t1/2 ([2]; ID 1.5 mg/animal, 100 µL Glycerol, mean (n = 1)): 1.77 h
- Plasma concentration ([2]; ID 1.5 mg/animal, 150 µL Glycerol, 0.25 hr, individual rats): 57.9 ng/mL and 96.3 ng/mL
- Plasma concentration ([2]; ID 1.5 mg/animal, 150 µL Glycerol, 0.5 hr, individual rats): 919 ng/mL and 57.8 ng/mL and 55.9 ng/mL
- Plasma concentration ([2]; ID 1.5 mg/animal, 150 µL Glycerol, 0.83 hr, individual rats): 72.7 ng/mL and 108 ng/mL
- Plasma concentration ([2]; ID 1.5 mg/animal, 150 µL Glycerol, 1.0 hr, individual rats): 60.6 ng/mL and 36.6 ng/mL
- Plasma concentration ([2]; ID 1.5 mg/animal, 150 µL Glycerol, 1.5 hr, individual rats): 46.8 ng/mL and 46.9 ng/mL and 16.0 ng/mL
- Plasma concentration ([2]; ID 1.5 mg/animal, 150 µL Glycerol, 2.0 hr, individual rats): 37.7 ng/mL and 33.4 ng/mL and 16.7 ng/mL
- tmax (second line so headed, Table 10) ([2]; ID 1.5 mg/animal, 150 µL Glycerol, individual rats): 1.16 h
- half-life ([2]; male, Sprague-Dawley, rat, in vivo, 1.5 mg, 50 µL PBS, 50 µL blank Capmul MCM L8 -2 hr, individual rats): 0.86 h
- half-life ([2]; male, Sprague-Dawley, rat, in vivo, 1.5 mg, 50 µL PBS, 50 µL blank Capmul MCM L8 -2 hr, mean (n = 1)): 0.86 h
- half-life ([2]; male, Sprague-Dawley, rat, in vivo, 1.5 mg, 100 µL Glycerol, individual rats): 1.77 h
- half-life ([2]; male, Sprague-Dawley, rat, in vivo, 1.5 mg, 100 µL Glycerol, mean (n = 1)): 1.77 h
- half-life ([2]; male, Sprague-Dawley, rat, in vivo, 1.5 mg, 150 µL Glycerol, mean (n = 2)): 1.63 h
- Tmax ([2]; male, Sprague-Dawley, rat, in vivo, 1.5 mg, tmax (second line so headed, Table 10), ID 1.5 mg/animal, 150 µL Glycerol, individual rats): 2.09 h
- Tmax ([2]; male, Sprague-Dawley, rat, in vivo, 1.5 mg, tmax (second line so headed, Table 10), ID 1.5 mg/animal, 150 µL Glycerol, mean): 1.63 h
- Tmax ([2]; male, Sprague-Dawley, rat, in vivo, 1.5 mg, tmax, ID 1.5 mg/animal, 50 µL PBS, 50 µL blank Capmul MCM L8 -2 hr, mean): 1 h
- Tmax ([2]; male, Sprague-Dawley, rat, in vivo, 1.5 mg, tmax, ID 1.5 mg/animal, 50 µL PBS, 150 µL blank glycerol -2 hr, mean): 0.75 h
